Twelve compounds from ChEMBL document CHEMBL1201862, “PubChem BioAssay data set” (2004) can be followed below.

The structures appear in SMILES notation.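 Five concentrations, 48 hours, 96-well plates. GI50 marks 50% less growth.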 The source made the active and inactive calls. Cut-off read from the data, not from the text of the source: active = GI50 up to about 1.1 µM and inactive = higher. Square brackets hold non-standard residues; d marks the D form. Peptide text beside a SMILES is read from it.

Among the test systems are HT-29; HCC 2998; NCI-H23; NCI-H226; SW-620; SK-OV-3; ACHN; SNB-75; M14; SF-539; UACC-62; SF-268; OVCAR-8; OVCAR-5; RXF 393; A549; EKVX.
Common to all, as to assay: NCI tumour cell line growth inhibition, 48 h

Regarding `CN(C)CC1CCC/C1=N/OC(=O)c1ccccc1` (stereo not drawn), the GI50 in the assay on HT-29, with HCC 2998, with NCI-H23, in the assay with NCI-H226, with SW-620 and in the assay with SK-OV-3 was > 100 µM (inactive) in each case. Moreover, the GI50 in the assay with ACHN, in the assay with SNB-75, in the assay with M14, in the assay with SF-539, in the assay on UACC-62 and with SF-268 was > 100 µM (inactive) throughout. The GI50 in the assay with OVCAR-8, in the assay with OVCAR-5 and in the assay with RXF 393 was > 100 µM (inactive) throughout.

For `Cc1cc(Cl)ccc1NC(=O)CC1SC(Nc2ccccc2Cl)=NC1=O` (stereo not drawn), the GI50 is 37.1 µM (inactive) in the assay on HT-29; 52.2 µM (inactive) in the assay with HCC 2998; 38.6 µM (inactive) in the assay on NCI-H23; 24.2 µM (inactive) in the assay with NCI-H226; 37.2 µM (inactive) with SW-620; 49.3 µM (inactive) in the assay on SK-OV-3. In addition, the GI50 in the assay on ACHN was 43.3 µM (inactive); with SNB-75, 38.7 µM (inactive); in the assay on M14, 49.2 µM (inactive); with SF-539 it was 20.3 µM (inactive); in the assay on UACC-62 it was 30.3 µM (inactive); with SF-268, 39 µM (inactive). Moreover, the GI50 is 36.3 µM (inactive) in the assay with A549; 29.6 µM (inactive) with OVCAR-8; 73.3 µM (inactive) with EKVX; > 100 µM (inactive) in the assay with OVCAR-5; 26.1 µM (inactive) in the assay on RXF 393.

`N#CNCC(COCc1ccccc1)c1ccccc1` (stereo not drawn): the GI50 in the assay on HCC 2998 was > 100 µM (inactive); in the assay on NCI-H23, > 100 µM (inactive); with NCI-H226, 98.4 µM (inactive); in the assay with SW-620, 70.5 µM (inactive); in the assay on SK-OV-3 it was > 100 µM (inactive); with ACHN it was > 100 µM (inactive). Moreover, the GI50 with SNB-75 is 41.9 µM (inactive); with M14 it was > 100 µM (inactive); in the assay on SF-539 it was > 100 µM (inactive); in the assay on UACC-62, > 100 µM (inactive); in the assay with SF-268 it was > 100 µM (inactive); with A549 it was > 100 µM (inactive). Besides, the figures for the GI50 in the assay on OVCAR-8, with EKVX and in the assay with RXF 393 were > 100 µM (inactive), > 100 µM (inactive) and 99.1 µM (inactive), respectively.

`O=C(CCN(C(=O)O)S(=O)(=O)c1ccc(NC(=O)c2ccccc2)cc1)Nc1ccccc1`: the GI50 with HT-29 is > 94.2 µM (inactive); in the assay with HCC 2998 it was > 100 µM (inactive); with NCI-H23 it was > 100 µM (inactive); in the assay with NCI-H226 it was > 100 µM (inactive); in the assay on SW-620, > 55 µM (inactive); in the assay on SK-OV-3, > 100 µM (inactive). In addition, the GI50 with ACHN is > 100 µM (inactive); in the assay with SNB-75 it was > 100 µM (inactive); in the assay with M14 it was > 100 µM (inactive); in the assay with SF-539, > 100 µM (inactive); with UACC-62, > 61.9 µM (inactive); with SF-268 it was > 100 µM (inactive). The GI50 is > 46.5 µM (inactive) with A549; > 96.2 µM (inactive) in the assay on OVCAR-8; > 100 µM (inactive) with EKVX; > 100 µM (inactive) in the assay with OVCAR-5; > 100 µM (inactive) with RXF 393.

Take `CC1=NN2C(c3ccc([N+](=O)[O-])cc3)=CSC2=NC(C)(C)C1`: the GI50 in the assay with HT-29, in the assay on HCC 2998, with NCI-H23, in the assay with NCI-H226, in the assay on SW-620 and in the assay with SK-OV-3 was > 100 µM (inactive) each time. The GI50 in the assay with ACHN, in the assay on SNB-75, with M14, with SF-539, in the assay on UACC-62 and in the assay with SF-268 was > 100 µM (inactive) in each case. Further, the GI50 in the assay on A549, with OVCAR-8, in the assay on EKVX, in the assay with OVCAR-5 and in the assay with RXF 393 was > 100 µM (inactive) in each case.

Take `O=C(CCN1CCOCC1)C(=Cc1ccccc1)C(=O)CCN1CCOCC1`: the GI50 was 2.98 µM (inactive) in the assay on HT-29; 13.7 µM (inactive) in the assay on HCC 2998; 2.3 µM (inactive) with NCI-H23; 14.6 µM (inactive) in the assay on NCI-H226; 1.92 µM (inactive) in the assay on SW-620; 16.6 µM (inactive) with SK-OV-3. For the same compound, the GI50 in the assay on SNB-75 is 15.5 µM (inactive); with SF-539 it was 3.44 µM (inactive); with UACC-62, 2.31 µM (inactive); with SF-268 it was 6.85 µM (inactive); with A549, 18.1 µM (inactive); with OVCAR-8, 2.91 µM (inactive). Besides, the figures for the GI50 in the assay on EKVX, in the assay on OVCAR-5 and with RXF 393 were 2.21 µM (inactive), 19.2 µM (inactive) and 1.68 µM (inactive), respectively.

With `CCc1ccccc1NC(=O)C1=C(C)NC(C)=C(C(=O)Nc2ccccc2CC)C1c1ccccc1Cl`, the GI50 in the assay on HT-29, in the assay with HCC 2998, in the assay on NCI-H23, with NCI-H226, in the assay with SW-620 and in the assay with SK-OV-3 was > 100 µM (inactive) each time. In addition, the GI50 in the assay on ACHN is 47.4 µM (inactive); in the assay on SNB-75 it was 71.6 µM (inactive); with M14, > 100 µM (inactive); in the assay on SF-539, > 100 µM (inactive); with SF-268, > 100 µM (inactive); with A549 it was > 100 µM (inactive). For the same compound, the GI50 in the assay on OVCAR-8, with EKVX, in the assay on OVCAR-5 and with RXF 393 was > 100 µM (inactive) in each case.

As to `CC12O[Te]34OC1(C)C(C)(O3)C2(C)O4`, the GI50 in the assay on HT-29 is 13.2 µM (inactive); in the assay with HCC 2998, 0.016 µM (active); in the assay on NCI-H23, 16.4 µM (inactive); with NCI-H226 it was 16.9 µM (inactive); in the assay with SW-620, 14.8 µM (inactive); with SK-OV-3 it was 22 µM (inactive). The GI50 in the assay with ACHN was 14.8 µM (inactive); in the assay with SNB-75, > 8.75 µM (inactive); with M14, 16.5 µM (inactive); with SF-539, 15.9 µM (inactive); in the assay with UACC-62, 30.1 µM (inactive); in the assay on SF-268, 11.8 µM (inactive). Besides, the GI50 in the assay on A549 is 12.3 µM (inactive); in the assay on OVCAR-8 it was 12.5 µM (inactive); in the assay on EKVX, 20.1 µM (inactive); with OVCAR-5, 12.2 µM (inactive); in the assay on RXF 393, 14.8 µM (inactive).

As for `O=C1C(=O)N(c2ccc(Cl)c(Cl)c2)C(=O)C(=O)C1c1nc2ccccc2s1`, the GI50 in the assay on HT-29 was > 100 µM (inactive); with HCC 2998, > 100 µM (inactive); in the assay with NCI-H23, > 100 µM (inactive); in the assay on NCI-H226 it was 88.7 µM (inactive); in the assay with SW-620 it was > 100 µM (inactive); in the assay with SK-OV-3, > 100 µM (inactive). Further, the GI50 with ACHN, in the assay with SNB-75, in the assay with M14, in the assay with SF-539, in the assay on UACC-62 and in the assay with SF-268 was > 100 µM (inactive) in each case. Further, the GI50 with A549 was > 100 µM (inactive); in the assay on OVCAR-8 it was 56.5 µM (inactive); in the assay with EKVX, > 100 µM (inactive); in the assay with OVCAR-5, > 100 µM (inactive); in the assay on RXF 393, > 100 µM (inactive).

On to `O=C(Nc1ccccc1-c1nn(CN2CCNCC2)c(=S)n(CN2CCNCC2)c1=O)C(F)(F)F`, for which the GI50 was 23.4 µM (inactive) in the assay on HT-29; 19.1 µM (inactive) in the assay with HCC 2998; 17.9 µM (inactive) in the assay with NCI-H23; 17.2 µM (inactive) in the assay on NCI-H226; 10.1 µM (inactive) with SW-620; 20 µM (inactive) in the assay with SK-OV-3. In addition, the GI50 in the assay with ACHN was 25.3 µM (inactive); in the assay with SNB-75, 22.6 µM (inactive); with M14, 16.9 µM (inactive); in the assay on SF-539, 18.4 µM (inactive); with UACC-62 it was 18.3 µM (inactive); with SF-268, 21.4 µM (inactive). The GI50 in the assay on A549 is 22.3 µM (inactive); in the assay on OVCAR-8 it was 20.6 µM (inactive); with EKVX, 14.2 µM (inactive); in the assay with OVCAR-5 it was 22.9 µM (inactive); in the assay with RXF 393 it was 16.3 µM (inactive).

With `O=C(NC/C=C/CO)c1ccccc1`, the GI50 in the assay with HT-29, in the assay on HCC 2998, with NCI-H23, in the assay with NCI-H226, in the assay on SW-620 and in the assay on SK-OV-3 was > 100 µM (inactive) throughout. Moreover, the GI50 in the assay with SNB-75 is 65.8 µM (inactive); in the assay with SF-539 it was > 100 µM (inactive); with UACC-62, > 100 µM (inactive); with SF-268, > 100 µM (inactive); with A549, > 100 µM (inactive); with OVCAR-8 it was > 100 µM (inactive). Further, the GI50 in the assay on EKVX, with OVCAR-5 and with RXF 393 was > 100 µM (inactive) each time.

In the case of `CC(C)C[C@H](NC(=O)[C@H](CC(C)C)NC(=O)[C@@H](Cc1c[nH]c2ccccc12)NC(=O)[C@H](Cc1ccccc1)NC(=O)[C@@H](Cc1c[nH]c2ccccc12)NC(=O)[C@H](CCC(N)=O)NC(=O)[C@@H](CCC(N)=O)NC(=O)[C@@H]1CCCN1C(=O)[C@@H](CCCCN)NC(=O)[C@H]1CCCN1C(=O)[C@H](N)CCCN=C(N)N)C(N)=O` (H-[dR][dP][dK]P[dQ]Q[dW]F[dW]LL-NH2), the GI50 with HT-29, in the assay on HCC 2998, in the assay on NCI-H23, in the assay with NCI-H226, with SW-620 and in the assay with SK-OV-3 was > 100 µM (inactive) in each case. For the same compound, the GI50 in the assay on SNB-75 was > 100 µM (inactive); in the assay with SF-539, > 61.4 µM (inactive); in the assay on UACC-62, > 100 µM (inactive); in the assay on SF-268, > 100 µM (inactive); in the assay with A549 it was > 100 µM (inactive); with OVCAR-8, > 100 µM (inactive). The GI50 in the assay with EKVX, in the assay with OVCAR-5 and in the assay on RXF 393 was > 100 µM (inactive) each time.
